Reference: patent US20260109732A1, “LIPID AMINES” (ModernaTX, Inc., priority 2021, published 2026)
Where a name gives a salt, the structure may show the parent alone.

Assays:
HeLa cells [1] = assay: Luciferase Protein Expression Assay in HeLa Cells; format: cell-based, Human; settings: LNPs encapsulating Luciferase mRNA, 25 ng per well, N=4 wells; 5 h serum-free then 24 h; ONE-Glo
Procedure, shortened: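 HeLa cells received LNPs carrying luciferase mRNA (25 ng per well) or PBS in serum-free MEM for 5 h, then complete MEM for a further 24 h. Luciferase then read by ONE-Glo luminescence after lysis and reported as average RLU of 4 replicate wells.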

HeLa cells [2] = assay: CFTR Protein Expression Assay in HeLa Cells; format: cell-based, Human; settings: LNPs encapsulating CFTR mRNA, N=4 wells; 5 h serum-free then 24 h; immunofluorescence vs PBS control
Procedure, shortened: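 HeLa cells dosed with CFTR mRNA LNPs (70 mM NaCl final buffer matrix) in serum-free MEM for 5 h, then complete MEM for 24 h. Fixed cells immunostained with anti-CFTR monoclonal and Alexa 488 secondary, imaged confocally; CFTR intensity per cell expressed as fold-change versus PBS buffer control, N=4 wells.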

[3] = Encapsulation of mRNA nanoparticles with lipid amines using Ribogreen assay; format: physicochemical
Procedure, shortened: (§1)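 Ionizable lipid nanoparticles (IL1:DSPC:cholesterol:PEG-DMG-2K) formed by vortex mixing at pH 4, loaded with luciferase or CFTR mRNA at N:P 4.93, neutralized with TRIS pH 8.12, then modified with lipid amine SA50 at pH 7.5. Particle diameter and PDI read by DLS; mRNA encapsulation by Ribogreen assay.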

[4] = Diameter and PDI from DLS measurements of mRNA nanoparticles with lipid amines; format: physicochemical
Procedure, shortened: as §1

[5] = CFTR mRNA nanoparticle with lipid amine
[6] = Luciferase mRNA nanoparticle modified with lipid amine

SMILES	Average Relative Light Units ± Standard Deviation (HeLa cells [1]) [Relative Light Units]	Average fold-change in CFTR signal intensity per cell compared to buffer control ± standard deviation (HeLa cells [2]) [fold-change]	% Encapsulation (Ribogreen) [3, 5] [%]	% Encapsulation (Ribogreen) [3, 6] [%]	Diameter (nm) [4, 5] [nm]	PDI [4, 5]	Diameter (nm) [4, 6] [nm]	PDI [4, 6]
CC(C)CCC[C@@H](C)[C@H]1CC[C@H]2[C@@H]3CC=C4C[C@@H](SSCCCCC(=O)N(CCCN)CCCCCCCCN)CC[C@]4(C)[C@H]3CC[C@]12C [SA110, N-(8-Aminooctyl)-N-(3-aminopropyl)-5-(((3S,8S,9S,10R,13R,14S,17R)-10,13-dimethyl-17-((R)-6-methylheptan-2-yl)-2,3,4,7,8,9,10,11,12,13,14,15,16,17-tetradecahydro-1H-cyclopenta[a]phenanthren-3-yl)disulfaneyl)pentanamide dihydrochloride]	14227 ± 2513.9	4.0 ± 0.2	98.8	98.8	84.2	0.15	70	0.14
CC[C@H](CC[C@@H](C)[C@H]1CC[C@H]2[C@@H]3CC=C4C[C@@H](OC(=O)N(CCCCNCCC(C)(C)N)CCC(C)(C)N)CC[C@]4(C)[C@H]3CC[C@]12C)C(C)C [SA114, (3S,8S,9S,10R,13R,14S,17R)-17-((2R,5R)-5-ethyl-6-methylheptan-2-yl)-10,13-dimethyl-2,3,4,7,8,9,10,11,12,13,14,15,16,17-tetradecahydro-1H-cyclopenta[a]phenanthren-3-yl (3-amino-3-methylbutyl)(4-((3-amino-3-methylbutyl)amino)butyl)carbamate trihydrochloride]	22594.3 ± 9128.4	6.3 ± 1.3	98.5	99.7	85.9	0.13	75	0.18
CC[C@H](CC[C@@H](C)[C@H]1CC[C@H]2[C@@H]3CC=C4C[C@@H](OC(=O)CCCC(=O)N(CCCN)CCCCNCCCN)CC[C@]4(C)[C@H]3CC[C@]12C)C(C)C [SA117, (3S,8S,9S,10R,13R,14S,17R)-17-((2R,5R)-5-ethyl-6-methylheptan-2-yl)-10,13-dimethyl-2,3,4,7,8,9,10,11,12,13,14,15,16,17-tetradecahydro-1H-cyclopenta[a]phenanthren-3-yl 5-((3-aminopropyl)(4-((3-aminopropyl)amino)butyl)amino)-5-oxopentanoate trihydrochloride]	10134.1 ± 3860.2	4.9 ± 1.2	98.6	99.7	94.7	0.17	77	0.28
CC[C@H](CC[C@@H](C)[C@H]1CC[C@H]2[C@@H]3CC=C4C[C@@H](OC(=O)[C@H](C)N(CCCN)CCCCNCCCN)CC[C@]4(C)[C@H]3CC[C@]12C)C(C)C [SA118, (3S,8S,9S,10R,13R,14S,17R)-17-((2R,5R)-5-ethyl-6-methylheptan-2-yl)-10,13-dimethyl-2,3,4,7,8,9,10,11,12,13,14,15,16,17-tetradecahydro-1H-cyclopenta[a]phenanthren-3-yl N-(3-aminopropyl)-N-(4-((3-aminopropyl)amino)butyl)alaninate tetrahydrochloride]	12261.7 ± 4328.5	9.7 ± 1.2	97.9	99.7	89.9	0.16	74	0.19
